Key:
Type in all cases: in vitro ADME
[1] = Stability in human liver microsomes; conditions: 0.5 mg/mL pooled male microsomes, read-out: Intrinsic Clearance (Cl int) Liver Microsomes
Protocol: Memantine (1 μM) was incubated in 0.5 mg/mL of pooled male rat, mouse, or human liver microsomes (obtained commercially), in 0.1 M phosphate buffer at 37 °C. After pre-warming the mixture for 5 min, reactions were initiated by the addition of NADPH (1 mM). Aliquots (80 μL) were taken at 0, 5, 10, 20 and 40 min, and the reaction immediately terminated by adding into 80 μL of acetonitrile containing an analytical internal standard (IS). Samples were centrifuged and the supernatant fractions analyzed by LC-MS/MS with multiple reaction monitoring (MRM). All incubations were performed in duplicate. Testosterone was used as the positive control. The MRM area response ratio of the analyte over IS for Time=0(control) was set to 100%, the relative decrease in MRM area ratio intensity over time against that of the control (percent parent decrease) was used to determine the half-life (t1/2) of memantine in the incubation. Half-life values were calculated from the relationship:
t1/2 (min) = -0.693/λ, where λ is the slope of the Ln concentration vs time curve. The intrinsic clearance (Clint) was calculated as:
Clint = (0.693 x incubation volume (μL))/(t½ (min) x mg of microsomal protein)

[2] = target: T1, human PEPT1 (Homo sapiens, UniProt P46059); experiment: Indirect uptake transporter assay, PEPT1
T1 sequence (P46059 1-708): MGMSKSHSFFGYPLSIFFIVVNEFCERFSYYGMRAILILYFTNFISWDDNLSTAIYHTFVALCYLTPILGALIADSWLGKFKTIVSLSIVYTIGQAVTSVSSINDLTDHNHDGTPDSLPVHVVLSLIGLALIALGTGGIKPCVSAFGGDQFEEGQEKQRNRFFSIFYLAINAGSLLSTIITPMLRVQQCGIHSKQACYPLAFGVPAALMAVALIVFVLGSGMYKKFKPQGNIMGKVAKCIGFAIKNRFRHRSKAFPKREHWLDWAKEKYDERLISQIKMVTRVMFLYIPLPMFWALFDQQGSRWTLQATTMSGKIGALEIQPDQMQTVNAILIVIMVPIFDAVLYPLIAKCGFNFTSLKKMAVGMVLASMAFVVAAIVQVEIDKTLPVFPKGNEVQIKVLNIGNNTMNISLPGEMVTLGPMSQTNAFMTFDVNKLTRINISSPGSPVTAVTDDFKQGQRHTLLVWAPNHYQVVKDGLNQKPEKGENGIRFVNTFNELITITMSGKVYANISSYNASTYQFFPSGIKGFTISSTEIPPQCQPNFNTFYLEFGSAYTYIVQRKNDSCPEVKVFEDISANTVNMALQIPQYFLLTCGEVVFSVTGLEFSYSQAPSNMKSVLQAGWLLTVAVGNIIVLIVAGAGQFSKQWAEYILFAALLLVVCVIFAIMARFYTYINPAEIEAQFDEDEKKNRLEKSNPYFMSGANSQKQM
Text: To determine whether memantine is an inhibitor of the human OATP2B1 (OATP-B), OCT1, OCT2, OAT3, PEPT1, PEPT2 uptake transporters. The standard uptake transporter assay is an indirect, inhibitory-type screening assay, performed with cold test article, which in this case was memantine. It provides information on any interaction (substrate or inhibitor) between selected uptake transporters and memantine that would affect the transport of the reporter compound. […] A radiolabeled reporter substrate is transported into the cells transfected with the selected human uptake transporter, and the inhibitory effect of memantine on the transport of this reporter substrate is measured. Values are presented on a relative scale; 100% defined as transport in the presence of the solvent and without memantine (no inhibition), and 0% defined as transport detected without transporter activity. IC50 is defined as the concentration required to inhibit the transport of the reporter substrate by 50%.
The uptake transporter assay was carried out under the conditions described in the table below, with either CHO cells or MDCKII cells stably expressing the respective uptake transporter.
Duplicate incubations of memantine (0 or DMSO control, 0.41, 1.2, 3.7, 11, 33, 100 and 300 µM) were conducted per concentration on transfected and in parental cells. A reference inhibitor (positive control, duplicate) was incubated in transfected cells.
CHO cells were cultured in a 1:1 mixture of Dubelcco’s Modified Eagle’s Medium (DMEM, Lonza, Allendale, NJ) and Ham's F-12 (F-12, Lonza, Allendale, NJ) and MDCKII cells in DMEM at 37°C in an atmosphere of 95:5 air:CO2. […]
After the experiment cells were rinsed with 2 x 100µl of Krebs-Henseleit buffer and lysed with 50 µl of 0.1M NaOH. ^3H-estrone-3-sulfate, ^14C-TEA, ^14C-metformin and ^3H-Gly-Sar transport was determined by total radioactivity by transferring an aliquot (35µl) from each well to a vial containing liquid scintillant for analysis.

[3] = target: T1, human PEPT1; experiment: Direct uptake transporter assay, PEPT1; conditions: for Accumulation in transporter transfected cells: PEPT1-transfected cells; for Accumulation in parental cells: parental CHO cells (PEPT1 line)
Protocol: To determine whether memantine is a substrate of the human OATP2B1 (OATP-B), OCT1, OCT2, OAT3, PEPT1, PEPT2 uptake transporters.
The potential for memantine to be a substrate of an uptake transporter was determined directly by comparing the uptake of memantine into cells expressing the selected uptake transporter with its uptake into control cells. Memantine was added to transporter-expressing and control cells at two concentrations (PEPT1 and PEPT2 100 and 300 µM, OCT1 and OCT2 50 and 100 µM, OATP2B1 100 and 300 µM), and incubated with cells for 2 and 20 min at 37±1°C (75 µL final incubation volume). The final concentrations of memantine were selected to be the IC50 of reporter substrate transport inhibition established in the indirect transporter assay and one order of magnitude lower. Incubations were carried out as described in the indirect uptake transporter assays. The concentration of memantine was determined by LC-MS/MS.

CC12CC3CC(C)(C1)CC(N)(C3)C2 [memantine]
microsomal CLint at 1 μM [1]: < 13.9 µL/min/mg | Maximal Inhibition ([2]; PEPT1, up to 300 µM): ~62% | IC50 ([2]; PEPT1-mediated glycylsarcosine transport): 280 µM | IC50 ([2]; PEPT1, probe printed in Table 5: E3S (1 μM), methods and text: Gly-Sar): 281 µM | Highest Fold Activation ([3]; PEPT1, 100µM, 20 min): 1.1 (100µM, 20 min) | Accumulation in transporter transfected cells ([3]; 2 min, 100 µM): 1073 pmol/mg | Accumulation in transporter transfected cells ([3]; 2 min, 300 µM): 2290 pmol/mg | Accumulation in transporter transfected cells ([3]; 20 min, 100 µM): 1087 pmol/mg | Accumulation in transporter transfected cells ([3]; 20 min, 300 µM): 1682 pmol/mg | substrate of PEPT1 uptake transporter ([3]; no preferential accumulation in transfected over parental cells): not a substrate | Accumulation in parental cells ([3]; 2 min, 100 µM): 969 pmol/mg | Accumulation in parental cells ([3]; 2 min, 300 µM): 2389 pmol/mg | Accumulation in parental cells ([3]; 20 min, 100 µM): 981 pmol/mg | Accumulation in parental cells ([3]; 20 min, 300 µM): 1614 pmol/mg

Reference: article PMC3269340, “Pharmacokinetics of memantine in rats and mice” (PLoS Currents, 2012)
